Read-outs that look alike come from different tables or passages of the source.
Molecular target: T1, porcine pancreatic lipase (triacylglycerol acyl hydrolase; EC 3.1.1.3) (Sus scrofa, UniProt P00591)
T1 sequence (P00591 1-450): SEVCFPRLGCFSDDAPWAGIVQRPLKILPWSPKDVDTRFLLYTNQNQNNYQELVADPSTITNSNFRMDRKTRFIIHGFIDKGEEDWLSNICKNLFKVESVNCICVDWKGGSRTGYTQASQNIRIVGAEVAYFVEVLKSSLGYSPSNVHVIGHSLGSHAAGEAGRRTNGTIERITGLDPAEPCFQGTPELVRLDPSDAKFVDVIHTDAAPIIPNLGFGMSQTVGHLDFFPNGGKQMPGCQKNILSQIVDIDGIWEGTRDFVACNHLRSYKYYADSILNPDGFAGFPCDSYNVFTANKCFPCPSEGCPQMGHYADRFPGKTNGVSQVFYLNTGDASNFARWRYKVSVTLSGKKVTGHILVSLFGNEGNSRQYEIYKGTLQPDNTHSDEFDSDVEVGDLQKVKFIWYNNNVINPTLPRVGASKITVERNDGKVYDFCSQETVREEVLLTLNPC
Assay: In vitro pancreatic lipase inhibition, 4-nitrophenyl butyrate substrate
Format: biochemical
Conditions: means ± SD (n = 3), PBS pH 7.2, 37 °C, OD 405 nm
Experimental: The inhibition of PL was evaluated using a previously reported method.
The inhibition studies of porcine pancreatic lipase (triacylglycerol acyl hydrolase; EC 3.1.1.3) were performed employing 4-nitrophenyl butyrate as a substrate. The compounds were dissolved in MeOH at concentrations from 0.22 mM to 2.7 mM. […] Then, the substrate solution was added (10 μL of 3.2 mM in H2O:DMF, 70:30), and the plate was incubated and shaken for 30 min at 37 °C. The optical density values (OD) were acquired at 405 nm with a Synergy H1 microplate reader (BioTek, Bad Friedrichshall, Germany). The experiments were performed in triplicate, and the %inhibition was determined by the following equation:(1) %inhibition=ODcontrol−ODsample/ODcontrol× 100% where ODcontrol refers to the enzyme–substrate mixture, while ODsample corresponds to the enzyme–substrate mixture in the presence of the inhibitor.
OriginPro 2023 software (OriginLab Corp., Northampton, MA, USA) was adopted for statistical analysis. The regression coefficients were determined based on the analysis of variance (one-way ANOVA, significance level 0.01). A p-value < 0.01 was set as the threshold for significance for Tukey’s test.

SMILES	IC50 (read-out: IC50) [µM]	IC50
C/C(=C\COc1c2ccoc2cc2oc(=O)ccc12)CCC(O)C(C)(C)O (centres unmarked) [Dihydroxybergamottin]	84.5 ± 1.5	–
COc1cc([C@H]2c3cc(O)c(OC)cc3C[C@@H](CO)[C@@H]2CO)ccc1O [Isolariciresinol]	12.3 ± 1.2	low micromolar range
Oc1ccc(/C=C/c2cc(O)cc3c2[C@@H](c2cc(O)cc(O)c2)[C@H](c2ccc(O)cc2)O3)cc1 [ε-Viniferin, Ɛ-Viniferin]	13.2 ± 0.6	low micromolar range
